From US10227357B2, “Compounds and methods for kinase modulation, and indications therefor” (Plexxikon Inc., priority 2012, dated 2019)

Tests used:
c-kit kinase = target: T1, c-kit kinase (Homo sapiens, UniProt P10721); test: c-Kit biochemical assay, AlphaScreen, 10 μM ATP; conditions: c-kit biochemical inhibitory activity; read-out: Biochemical activity (IC50 μM) Kit
T1 construct: The c-kit (or kinase domain thereof) is an active kinase in AlphaScreen; poly-Histidine tag (in-house protein only) (cleaved yes); host or cells: E. coli BL21(DE3)RIL, co-expressed with PTP1B
How it was run: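 His-tagged c-Kit expressed in E. coli with co-expressed PTP1B (dephosphorylated), tag removed; 0.1 ng per reaction with biotinylated-peptide substrate in 50 mM HEPES pH 7.2, 5 mM MgCl2, 5 mM MnCl2, 5% DMSO, 10 μM ATP, 1 h at room temperature. Phosphorylation detected by AlphaScreen (streptavidin donor, PY20 acceptor beads); IC50 from 8-point 1:3 dilution series.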

c-kit mutant D816V = target: T2, c-kit mutant D816V (Homo sapiens, UniProt P10721, D816V/DEL694-753); test: c-Kit mutant D816V biochemical assay, AlphaScreen; conditions: c-kit D816V biochemical inhibitory activity; read-out: Biochemical activity (IC50 μM) Kit D816V
T2 construct: residues 551-934, kinase insertion domain residues 694-753 deleted; 6x-histidine (N); made in house; host or cells: E. coli Arctic Express (DE3) RIL (Stratagene)
How it was run: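 Purified His-tagged c-Kit D816V (E. coli-expressed) assayed in 25 mM HEPES pH 7.2 with Mg/Mn, 5% DMSO and 10 μM ATP, 30 min at room temperature, 8-point 1:3 dilutions. Phosphorylation detected by AlphaScreen with streptavidin donor and PY20 acceptor beads; IC50 from signal versus concentration.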

T2 sequence (P10721 with tags, fused parts or gaps DEL694-753/D816V): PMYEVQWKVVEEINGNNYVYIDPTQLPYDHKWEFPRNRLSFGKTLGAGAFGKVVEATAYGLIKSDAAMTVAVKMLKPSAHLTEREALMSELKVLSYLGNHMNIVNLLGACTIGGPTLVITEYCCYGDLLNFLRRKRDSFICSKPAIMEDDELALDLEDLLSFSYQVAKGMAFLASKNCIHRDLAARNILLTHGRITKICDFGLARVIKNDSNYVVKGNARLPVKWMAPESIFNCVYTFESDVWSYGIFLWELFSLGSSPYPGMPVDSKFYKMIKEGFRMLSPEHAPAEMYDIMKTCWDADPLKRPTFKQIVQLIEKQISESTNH
T1 sequence (P10721 26-976): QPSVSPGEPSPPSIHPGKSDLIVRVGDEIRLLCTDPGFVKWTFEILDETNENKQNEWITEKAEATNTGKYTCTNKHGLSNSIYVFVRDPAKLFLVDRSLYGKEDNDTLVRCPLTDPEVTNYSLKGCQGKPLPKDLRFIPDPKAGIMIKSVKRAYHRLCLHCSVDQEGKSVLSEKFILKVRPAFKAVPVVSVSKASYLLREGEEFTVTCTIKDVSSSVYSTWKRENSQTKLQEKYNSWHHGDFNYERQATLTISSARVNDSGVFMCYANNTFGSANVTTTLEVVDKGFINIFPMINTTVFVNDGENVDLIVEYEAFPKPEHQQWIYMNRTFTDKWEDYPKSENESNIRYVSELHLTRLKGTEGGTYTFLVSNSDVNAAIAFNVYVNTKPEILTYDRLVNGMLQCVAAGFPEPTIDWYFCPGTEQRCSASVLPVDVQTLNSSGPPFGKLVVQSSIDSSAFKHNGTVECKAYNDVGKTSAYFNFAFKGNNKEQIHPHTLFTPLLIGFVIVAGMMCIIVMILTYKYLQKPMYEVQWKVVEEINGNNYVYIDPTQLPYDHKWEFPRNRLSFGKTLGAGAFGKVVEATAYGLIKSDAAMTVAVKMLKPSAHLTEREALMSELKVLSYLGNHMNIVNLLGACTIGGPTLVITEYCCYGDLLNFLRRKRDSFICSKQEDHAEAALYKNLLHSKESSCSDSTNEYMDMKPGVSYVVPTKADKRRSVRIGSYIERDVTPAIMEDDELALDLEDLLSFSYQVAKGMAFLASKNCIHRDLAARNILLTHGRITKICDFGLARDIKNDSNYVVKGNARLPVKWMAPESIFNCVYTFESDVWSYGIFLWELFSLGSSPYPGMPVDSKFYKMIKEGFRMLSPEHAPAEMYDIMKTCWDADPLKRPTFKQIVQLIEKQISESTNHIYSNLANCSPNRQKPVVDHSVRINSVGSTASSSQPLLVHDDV

Structure (SMILES)	IC50 (c-kit kinase)	IC50 (c-kit mutant D816V)
Cn1cc(-c2cc3c(N4CCC(NS(=O)(=O)c5ccc(Cl)s5)CC4)ncnc3[nH]2)cn1 [P-0458, 5-chloro-N-[1-[6-(1-methylpyrazol-4-yl)-7H-pyrrolo[2,3-d]pyrimidin-4-yl]-4-piperidyl]thiophene-2-sulfonamide]	10 to 200 µM	0.0001 to 1 µM
C[C@H](NC(=O)N1CCN(c2ncnc3[nH]c(-c4ccc(C#N)cc4)cc23)C[C@H]1C)c1ccc(Cl)cc1 [P-0691, (2R)-N-[(1S)-1-(4-chlorophenyl)ethyl]-4-[6-(4-cyanophenyl)-7H-pyrrolo[2,3-d]pyrimidin-4-yl]-2-methyl-piperazine-1-carboxamide]	10 to 200 µM	0.0001 to 1 µM
C[C@H](NC(=O)N1CCN(c2ncnc3[nH]c(-c4ccc(F)cc4)cc23)CC1(C)C)c1cccc(Cl)c1 [P-0008, N-[(1S)-1-(3-chlorophenyl)ethyl]-4-[6-(4-fluorophenyl)-7H-pyrrolo[2,3-d]pyrimidin-4-yl]-2,2-dimethyl-piperazine-1-carboxamide]	1 to 10 µM	0.0001 to 1 µM
COc1cccc([C@H](C)NC(=O)N2CCN(c3ncnc4[nH]c(C)cc34)CC2)c1 [P-0003, N-[(1S)-1-(3-methoxyphenyl)ethyl]-4-(6-methyl-7H-pyrrolo[2,3-d]pyrimidin-4-yl)piperazine-1-carboxamide]	10 to 200 µM	0.0001 to 1 µM
O=S(=O)(Nc1cccc(-c2ncnc3[nH]c(-c4ccc(F)cc4)cc23)c1)C1CC1 [P-0413, N-[3-[6-(4-fluorophenyl)-7H-pyrrolo[2,3-d]pyrimidin-4-yl]phenyl]cyclopropanesulfonamide]	1 to 10 µM	1 to 10 µM
O=C(C1CC1)N1CC=C(c2cc3ncnc(-c4ccc(NS(=O)(=O)c5ccc(F)cc5)cc4)c3s2)CC1 [P-0570, N-[4-[6-[1-(cyclopropanecarbonyl)-3,6-dihydro-2H-pyridin-4-yl]thieno[3,2-d]pyrimidin-4-yl]phenyl]-4-fluoro-benzenesulfonamide]	0.0001 to 1 µM	0.0001 to 1 µM
Cc1cc2c(-c3ccc(NS(=O)(=O)c4sc(C)nc4C)cc3)ncnc2[nH]1 [P-0300, 2,4-dimethyl-N-[4-(6-methyl-7H-pyrrolo[2,3-d]pyrimidin-4-yl)phenyl]thiazole-5-sulfonamide]	10 to 200 µM	1 to 10 µM
O=C(NCc1ccc(Cl)cc1)N1CCN(c2ncnc3[nH]c(-c4ccc(Cl)cc4)cc23)CC1 [P-0212, N-[(4-chlorophenyl)methyl]-4-[6-(4-chlorophenyl)-7H-pyrrolo[2,3-d]pyrimidin-4-yl]piperazine-1-carboxamide]	1 to 10 µM	0.0001 to 1 µM
COc1cccc([C@H](C)NC(=O)N2CCN(c3ncnc4[nH]c(-c5ccnc(OC)c5)cc34)CC2(C)C)c1 [P-0009, N-[(1S)-1-(3-methoxyphenyl)ethyl]-4-[6-(2-methoxy-4-pyridyl)-7H-pyrrolo[2,3-d]pyrimidin-4-yl]-2,2-dimethyl-piperazine-1-carboxamide]	1 to 10 µM	0.0001 to 1 µM
Cn1cc(-c2cc3c(N4CCN(C(=O)Nc5ccc(OC(F)(F)F)cc5)CC4)ncnc3[nH]2)cn1 [P-0092, 4-[6-(1-methylpyrazol-4-yl)-7H-pyrrolo[2,3-d]pyrimidin-4-yl]-N-[4-(trifluoromethoxy)phenyl]piperazine-1-carboxamide]	0.0001 to 1 µM	0.0001 to 1 µM
Cc1cc2c(-c3ccc(NS(=O)(=O)c4cccc(Cl)c4)c(F)c3)ncnc2[nH]1 [P-0345, 3-chloro-N-[2-fluoro-4-(6-methyl-7H-pyrrolo[2,3-d]pyrimidin-4-yl)phenyl]benzenesulfonamide]	1 to 10 µM	1 to 10 µM
O=C(Nc1ccc(F)c(Cl)c1)N1CCN(c2ncnc3[nH]ccc23)CC1 [P-0165, N-(3-chloro-4-fluoro-phenyl)-4-(7H-pyrrolo[2,3-d]pyrimidin-4-yl)piperazine-1-carboxamide]	1 to 10 µM	10 to 200 µM
C[C@H](NC(=O)N1CCN(c2ncnc3[nH]c(-c4cnn(C)c4)cc23)CC1(C)C)c1ccc(Cl)cc1 [P-0722, N-[(1S)-1-(4-chlorophenyl)ethyl]-2,2-dimethyl-4-[6-(1-methylpyrazol-4-yl)-7H-pyrrolo[2,3-d]pyrimidin-4-yl]piperazine-1-carboxamide]	0.0001 to 1 µM	0.0001 to 1 µM
CC(=O)Nc1cccc(-c2cc3c(N4CCN(C(=O)Nc5ccc(OC(F)(F)F)cc5)CC4)ncnc3[nH]2)c1 [P-0120, 4-[6-(3-acetamidophenyl)-7H-pyrrolo[2,3-d]pyrimidin-4-yl]-N-[4-(trifluoromethoxy)phenyl]piperazine-1-carboxamide]	0.0001 to 1 µM	1 to 10 µM
COc1ccc(CCNC(=O)N2CCN(c3ncnc4[nH]ccc34)CC2)cc1 [P-0169, N-[2-(4-methoxyphenyl)ethyl]-4-(7H-pyrrolo[2,3-d]pyrimidin-4-yl)piperazine-1-carboxamide]	10 to 200 µM	10 to 200 µM
Cc1cc2c(-c3ccc(NS(=O)(=O)c4ccc(C)c(F)c4)c(F)c3)ncnc2[nH]1 [P-0350, 3-fluoro-N-[2-fluoro-4-(6-methyl-7H-pyrrolo[2,3-d]pyrimidin-4-yl)phenyl]-4-methyl-benzenesulfonamide]	1 to 10 µM	1 to 10 µM
COc1cc(NC(=O)N2CCN(c3ncnc4[nH]c(-c5cccnc5)cc34)CC2)cc(OC)c1 [P-0229, N-(3,5-dimethoxyphenyl)-4-[6-(3-pyridyl)-7H-pyrrolo[2,3-d]pyrimidin-4-yl]piperazine-1-carboxamide]	1 to 10 µM	0.0001 to 1 µM
O=C(Nc1ccc(OC(F)(F)F)cc1)N1CCN(c2ncnc3[nH]c(-c4cccnc4)cc23)CC1 [P-0224, 4-[6-(3-pyridyl)-7H-pyrrolo[2,3-d]pyrimidin-4-yl]-N-[4-(trifluoromethoxy)phenyl]piperazine-1-carboxamide]	0.0001 to 1 µM	0.0001 to 1 µM
O=C(Nc1ccccc1Cl)N1CCN(c2ncnc3[nH]c(-c4cccnc4)cc23)CC1 [P-0220, N-(2-chlorophenyl)-4-[6-(3-pyridyl)-7H-pyrrolo[2,3-d]pyrimidin-4-yl]piperazine-1-carboxamide]	0.0001 to 1 µM	0.0001 to 1 µM
C[C@H](NC(=O)N1CCN(c2ncnc3[nH]c(-c4cnn(C)c4)cc23)CC1(C)C)c1ccc(F)cc1 [P-0720, N-[(1S)-1-(4-fluorophenyl)ethyl]-2,2-dimethyl-4-[6-(1-methylpyrazol-4-yl)-7H-pyrrolo[2,3-d]pyrimidin-4-yl]piperazine-1-carboxamide]	0.0001 to 1 µM	0.0001 to 1 µM
Cc1cc2c(-c3ccc(NS(=O)(=O)c4ccc(C(F)(F)F)nc4)cc3)ncnc2[nH]1 [P-0297, N-[4-(6-methyl-7H-pyrrolo[2,3-d]pyrimidin-4-yl)phenyl]-6-(trifluoromethyl)pyridine-3-sulfonamide]	10 to 200 µM	1 to 10 µM
O=S(=O)(Nc1ccc(-c2ncnc3cc4c(cc23)OCCO4)c(F)c1)C1CC1 [P-0265, N-[4-(7,8-dihydro-[1,4]dioxino[2,3-g]quinazolin-4-yl)-3-fluoro-phenyl]cyclopropanesulfonamide]	10 to 200 µM	10 to 200 µM
Cn1cc(-c2cc3c(N4CCC(NS(=O)(=O)c5cc(Cl)c(Cl)s5)CC4)ncnc3[nH]2)cn1 [P-0461, 4,5-dichloro-N-[1-[6-(1-methylpyrazol-4-yl)-7H-pyrrolo[2,3-d]pyrimidin-4-yl]-4-piperidyl]thiophene-2-sulfonamide]	1 to 10 µM	0.0001 to 1 µM
O=S(=O)(Nc1ccc(-c2cc3c(-c4ccc(NS(=O)(=O)C5CC5)cc4)ncnc3[nH]2)cc1)C1CC1 [P-0389, N-[4-[4-[4-(cyclopropylsulfonylamino)phenyl]-7H-pyrrolo[2,3-d]pyrimidin-6-yl]phenyl]cyclopropanesulfonamide]	1 to 10 µM	0.0001 to 1 µM
O=C(NCc1ccc(F)cc1)N1CCN(c2ncnc3[nH]c(-c4cccnc4)cc23)CC1 [P-0222, N-[(4-fluorophenyl)methyl]-4-[6-(3-pyridyl)-7H-pyrrolo[2,3-d]pyrimidin-4-yl]piperazine-1-carboxamide]	1 to 10 µM	1 to 10 µM
Cc1ccc(S(=O)(=O)NC2CCN(c3ncnc4[nH]c(-c5cnn(C)c5)cc34)CC2)cc1 [P-0451, 4-methyl-N-[1-[6-(1-methylpyrazol-4-yl)-7H-pyrrolo[2,3-d]pyrimidin-4-yl]-4-piperidyl]benzenesulfonamide]	1 to 10 µM	0.0001 to 1 µM
Cc1cc2c(-c3ccc(NS(=O)(=O)c4ccc(Cl)cc4)cc3)ncnc2[nH]1 [P-0330, 4-chloro-N-[4-(6-methyl-7H-pyrrolo[2,3-d]pyrimidin-4-yl)phenyl]benzenesulfonamide]	1 to 10 µM	1 to 10 µM
Cn1cc(-c2cc3ncnc(-c4ccc(N)nc4)c3s2)cn1 [P-0621, 5-[6-(1-methylpyrazol-4-yl)thieno[3,2-d]pyrimidin-4-yl]pyridin-2-amine]	1 to 10 µM	1 to 10 µM
C[C@H](NC(=O)N1CCN(c2ncnc3cc(-c4ccc(F)cc4)sc23)CC1(C)C)c1ccc(F)cc1 [P-0593, N-[(1S)-1-(4-fluorophenyl)ethyl]-4-[6-(4-fluorophenyl)thieno[3,2-d]pyrimidin-4-yl]-2,2-dimethyl-piperazine-1-carboxamide]	10 to 200 µM	0.0001 to 1 µM
